# Data taken from publication PMC10669340, “Bioactive Compounds from an Endophytic Pezicula sp. Showing Antagonistic Effects against the Ash Dieback Pathogen” (Biomolecules, 2023).
# Where two headings read alike, the source gives them in different places.
# What was measured:
# [1] = system: Acinetobacter baumannii DSM 30008; experiment: Antimicrobial serial dilution assay (MIC); format: cell-based; conditions: n.i.: no inhibition
# Experimental: (§1) The antimicrobial activity (minimum inhibitory concentration, MIC) of the compounds was determined against Acinetobacter baumannii DSM 30008, Bacillus subtilis DSM 10, Chromobacterium violaceum DSM 30191, Escherichia coli DSM 1116, Mycobacterium smegmatis ATCC 700084, Pseudomonas aeruginosa PA14, Staphylococcus aureus DSM 346, Candida albicans DSM1665, Mucor hiemalis DSM 2656, Pichia anomala DSM 6766, Rhodotorula glutinis DSM 10134 and Schizosaccharomyces pombe DSM 70572 in a serial dilution assay as previously described.
# [2] = system: Bacillus subtilis DSM 10; experiment: Antimicrobial serial dilution assay (MIC); format: cell-based; conditions: Bacillus subtilis, DSM10, read-out: Minimum inhibitory concentration (MIC)
# Experimental: as §1
# [3] = system: Candida albicans DSM1665; experiment: Antimicrobial serial dilution assay (MIC); format: cell-based; conditions: n.i.: no inhibition
# Experimental: as §1
# [4] = system: Chromobacterium violaceum DSM 30191; experiment: Antimicrobial serial dilution assay (MIC); format: cell-based; conditions: n.i.: no inhibition
# Experimental: as §1
# [5] = system: Escherichia coli DSM 1116; experiment: Antimicrobial serial dilution assay (MIC); format: cell-based; conditions: n.i.: no inhibition
# Experimental: as §1
# [6] = system: Mucor hiemalis DSM 2656; experiment: Antimicrobial serial dilution assay (MIC); format: cell-based; conditions: Mucor hiemalis, DSM2656, read-out: Minimum inhibitory concentration (MIC)
# Experimental: as §1
# [7] = system: Mycobacterium smegmatis ATCC 700084; experiment: Antimicrobial serial dilution assay (MIC); format: cell-based; conditions: Mycolicibacterium smegmatis, ATCC700084, read-out: Minimum inhibitory concentration (MIC)
# Experimental: as §1
# [8] = system: Pichia anomala DSM 6766; experiment: Antimicrobial serial dilution assay (MIC); format: cell-based; conditions: Hansenula anomala, DSM6766, read-out: Minimum inhibitory concentration (MIC)
# Experimental: as §1
# [9] = system: Pseudomonas aeruginosa PA14; experiment: Antimicrobial serial dilution assay (MIC); format: cell-based; conditions: n.i.: no inhibition
# Experimental: as §1
# [10] = system: Rhodotorula glutinis DSM 10134; experiment: Antimicrobial serial dilution assay (MIC); format: cell-based; conditions: Rhodotorula glutinis, DSM10134, read-out: Minimum inhibitory concentration (MIC)
# Experimental: as §1
# [11] = system: Schizosaccharomyces pombe DSM 70572; experiment: Antimicrobial serial dilution assay (MIC); format: cell-based; conditions: Schizosaccharomyces pombe, DSM70572, read-out: Minimum inhibitory concentration (MIC)
# Experimental: as §1
# [12] = system: Staphylococcus aureus DSM 346; experiment: Antimicrobial serial dilution assay (MIC); format: cell-based; conditions: Staphylococcus aureus, DSM346, read-out: Minimum inhibitory concentration (MIC)
# Experimental: as §1
# [13] = MTT cytotoxicity assay; format: cell-based; conditions: read-out: Cytotoxic activity (IC50)
# Experimental: (§2) The in vitro cytotoxicity assay was performed using the MTT (3-(4,5-dimethylthiayol-2-yl)-2,5-diphenyltetrazolium bromide) test in 96-well microtiter plates as previously described.
# [14] = system: H. fraxineus (isolate RH02-T6-B4-2); experiment: Agar disc diffusion assay; format: cell-based, Hymenoscyphus fraxineus; conditions: for Antifungal activity, inhibition diameter: 6 mm disc, 7 days, 21 °C
# Experimental: The antifungal activity of the isolated compounds against H. fraxineus was assessed by the disc diffusion method using 9 cm diameter petri dishes as previously described […] Three sterile filter paper discs per plate were gently placed on dried potato–dextrose agar. The fungicide nystatin was applied as the positive control (20 and 50 µg/paper disc) and methanol as the negative control (10 µL/paper disc). The test plates were incubated at 21 °C for 7 days, the inhibition diameters were measured, and the activity was evaluated compared to nystatin.
# Figure S44: Agar disc (6 mm diam.) diffusion assay of compound CJ-17,572 (1) against H. fraxineus RH02-T6-B4-2, grown in 9-cm petri dishes on agar-based PD
# medium with H. fraxineus, N - positive control nystatin, M - negative control methanol, CJ – 1.
# Table S1. Antifungal activity of the compounds 1-6. n.i.: no inhibition, n.t.: not tested.
# Compounds Amount ( µg/paper disc)
# Peziculastatin n.t. n.i. 8 mm
# Mycorrhizin A 19 mm 31 mm n.t.
# Cryptosporioptide A n.t. n.i. n.i.
# Cryptosporioptide B n.t. n.i. 8 mm
# Cryptosporioptide C n.t. n.i. n.i.
# Nystatin 21 mm 24 mm n.t.
# [15] = system: Fraxineus excelsior leaves; experiment: Phytotoxicity leaf puncture assay; conditions: 1 mg/mL in MeOH, 20 µL on punctured leaves, evaluated after 3 days
# Experimental: The phytotoxicity of the compounds 1, 3 and 4 was assessed using the leaf puncture assay as described previously. The other compounds could not be evaluated because of the limited quantity.
# For this assay, similar leaves of the same Fraxineus excelsior plant were chosen onto which the compounds were applied. The pure compounds were dissolved at 1 mg/mL in MeOH. Then, 20 µL of test samples were applied to the adaxial sides of leaves that had previously been needle punctured. A total of 20 µL of MeOH in distilled water (4%) was applied on the leaves as the negative control and 1 mg/mL macrocidin A [23] as the positive control. Each treatment was repeated three times and then the leaves were placed on moistened paper filters in petri dishes (diameter 9 cm) to prevent the droplets from drying. The experiment was run in duplicate. Leaves were evaluated for the symptoms after 3 days.
# [16] = system: panel of bacteria and fungi; experiment: Antimicrobial serial dilution assay, whole panel (summary statements); format: cell-based
# Experimental: as §1
# [17] = system: panel of mammalian cell lines; experiment: MTT cytotoxicity assay, panel (summary statements); format: cell-based; conditions: 4–6 only KB3.1 and L929
# Experimental: as §2
smiles,measurement,setting,value
"C[C@H]1CC[C@H]2[C@@H](C=C[C@H](C)[C@]2(C)C(=O)C2=C(O)[C@H]([C@@H](C)O)N(C)C2=O)C1 [Compound 1, CJ-17,572]",Minimum inhibitory concentration (MIC),[1],n.i.
same,MIC,[2],8.3 µg/mL
same,Minimum inhibitory concentration (MIC),[3],n.i.
same,Minimum inhibitory concentration (MIC),[4],n.i.
same,Minimum inhibitory concentration (MIC),[5],n.i.
same,MIC,[6],4.2 µg/mL
same,MIC,[7],66.6 µg/mL
same,MIC,[8],33.3 µg/mL
same,Minimum inhibitory concentration (MIC),[9],n.i.
same,MIC,[10],66.6 µg/mL
same,MIC,[11],33.3 µg/mL
same,MIC,[12],8.3 µg/mL
same,IC50,"[13]; human, A431",23 µM
same,IC50,"[13]; human, A549",4.4 µM
same,IC50,"[13]; human, KB3.1, n.c.: no cytotoxicity",2.5 µM
same,IC50,"[13]; human, MCF-7",2.7 µM
same,IC50,"[13]; human, PC-3",3.3 µM
same,IC50,"[13]; human, SKOV-3",3.3 µM
same,IC50,"[13]; mouse, L929, n.c.: no cytotoxicity",5 µM
same,"Antifungal activity, inhibition diameter",[14]; 20 µg/paper disc,9 mm
same,inhibitory effects against H. fraxineus (in words),[14]; 50 µg (1) and 20 µg (3) test substance per paper disc,strong inhibitory effects
same,"Antifungal activity, inhibition diameter","[14]; 50 µg/paper disc, n.i.: no inhibition",11 mm
same,"phytotoxic activity, leaf puncture assay",[15],brownish lesions
same,antimicrobial activity against the tested microorganisms (in words),[16],moderate to weak antifungal activity
same,cytotoxicity against the tested cell lines (in words),[17],active against all the tested cell lines
